For 32 compounds, LC retention time results are on record in the RepoRT retention time repository.

This data set in a line: HILIC, Merck SeQuant ZIC-HILIC, 25 °C, 0.25 mL/min; A: water + 16 mM ammonium formate; B: acetonitrile + 0.1% formic acid, pH 3; gradient (min/%B) 0/97 2/97 10/70 15/10 17/10 18/97 25/97. The following applies: stereoisomer not certain.
In the case of `NC(=O)c1ncn(C2OC(COP(=O)(O)O)C(O)C2O)c1N` (configuration not stated) [AICAR], the LC retention time came out at 14.2 min.
Take `NC(=O)NC1NC(=O)NC1=O` (configuration not stated) [ALLANTOIN]: the LC retention time worked out at 11.2 min.
Regarding `NC(CCCC(=O)O)C(=O)O` (configuration not stated) [AMINOADIPATE], the LC retention time came to 13.8 min.
Regarding `CC(CN)C(=O)O` (configuration not stated) [AMINOISOBUTANOATE], the LC retention time came out at 13.4 min.
Consider `Cn1cncc1CC(NC(=O)CCN)C(=O)O` (configuration not stated) [ANSERINE], for which the LC retention time was determined as 16.1 min.
With `Nc1ccccc1C(=O)O` [ANTHRANILATE], the LC retention time was found to be 1.84 min.
Consider `O=C1OC(C(O)CO)C(O)=C1O` (configuration not stated) [ASCORBATE], for which the LC retention time is 10.5 min.
`O=C(O)CCCCCCCC(=O)O` [AZELATE]: the LC retention time amounted to 1.84 min.
For `CC(=O)OCC(=O)O` [Acetoxyacetic acid] the value was 2.23 min.
For `Nc1ncnc2c1ncn2C1OC(CO)C(OP(=O)(O)O)C1O` (configuration not stated) [Adenosine 3'-monophosphate free acid] the value was 13.2 min; for `Nc1ccc(C(=O)NCC(=O)O)cc1` [Aminohippuric acid], 5.96 min.
As for `NCCC(=O)O` [BETA-ALANINE], the LC retention time came out at 14.1 min.
For the compound `NC(=O)c1ccc[n+](C2OC(COP(=O)(O)OP(=O)(O)OCC3OC(n4cnc5c(N)ncnc54)C(O)C3O)C(O)C2O)c1` (stereo not drawn) [BETA-NICOTINAMIDE ADENINE DINUCLEOTIDE], the LC retention time is 14.6 min.
The same measure for `C=CC1=C(C)C(C=c2[nH]c(=Cc3[nH]c(C=C4NC(=O)C(C)=C4C=C)c(C)c3CCC(=O)O)c(CCC(=O)O)c2C)=NC1=O` [BILIVERDIN]: 2.06 min.
For the compound `CCCCC(CC)COC(=O)c1ccccc1C(=O)OCC(CC)CCCC` (configuration not stated) [BIS(2-ETHYLHEXYL)PHTHALATE], the LC retention time is 1.48 min.
For `CCCC=O` [BUTANAL], the LC retention time turned out to be 1.71 min.
The same measure for `CCCC(=O)[O-]` [BUTANOATE]: 2.15 min.
On to `C=C(C)C1CCC2(C(=O)O)CCC3(C)C(CCC4C5(C)CCC(O)C(C)(C)C5CCC43C)C12` (configuration not stated) [Betulinic acid], for which the LC retention time was 1.58 min.
In the case of `CCCCCCCCCCCCCCC=COCC(O)COP(=O)([O-])OCC[N+](C)(C)C` (configuration not stated) [C16_PlasmLPC], the LC retention time was 11.1 min.
On to `CCCCCCCCCCCCCCCCCCOCC(O)COP(=O)([O-])OCC[N+](C)(C)C` (configuration not stated) [C18_LysoPAF], for which the LC retention time came out at 11.3 min.
`Cn1c(=O)c2c(ncn2C)n(C)c1=O` [CAFFEINE]: the LC retention time was 1.87 min.
For `NCCC(=O)NC(Cc1cnc[nH]1)C(=O)O` (configuration not stated) [CARNOSINE], the LC retention time was 16 min.
`CC(CCC(=O)O)C1CCC2C3C(O)CC4CC(O)CCC4(C)C3CCC12C` (configuration not stated) [CHENODEOXYCHOLATE]: the LC retention time was 1.85 min.
For `CC(CCC(=O)O)C1CCC2C3C(O)CC4CC(O)CCC4(C)C3CC(O)C12C` (configuration not stated) [CHOLATE] the value was 2.18 min; for `C[N+](C)(C)CCOP(=O)(O)OP(=O)([O-])OCC1OC(n2ccc(N)nc2=O)C(O)C1O` (configuration not stated) [CITICOLINE], 15.7 min; for `CC(O)(CC(=O)O)C(=O)O` (configuration not stated) [CITRAMALATE], 6.53 min.
Regarding `O=C(O)CC(O)(CC(=O)O)C(=O)O` [CITRATE], the LC retention time was 13 min.
For the compound `NC(=O)NCCCC(N)C(=O)O` (configuration not stated) [CITRULLINE], the LC retention time turned out to be 14.5 min.
The same measure for `CC(C)(COP(=O)(O)OP(=O)(O)OCC1OC(n2cnc3c(N)ncnc32)C(O)C1OP(=O)(O)O)C(O)C(=O)NCCC(=O)NCCS` (configuration not stated) [COENZYME A]: 14.3 min; for `CC12CCC(=O)C=C1CCC1C2CCC2(C)C1CCC2(O)C(=O)CO` (configuration not stated) [CORTEXOLONE]: 1.71 min.
Take `CC12CCC(=O)C=C1CCC1C2C(O)CC2(C)C(C(=O)CO)CCC12` (configuration not stated) [CORTICOSTERONE]: the LC retention time was 1.74 min.
Turning to `CC12CCC(=O)C=C1CCC1C2C(O)CC2(C)C1CCC2(O)C(=O)CO` (configuration not stated) [CORTISOL], the LC retention time is 1.89 min.
